From US12029738B2, “Antiproliferative compounds and methods of use thereof” (Celgene Corporation, priority 2017, dated 2024)

How the values were obtained:
in vivo = conditions: male, CD-IGS, rat, po
Method: 7-Day Exploratory Toxicology Studies in Male Rats. Methods. Male CD-IGS rats (n=5/group for toxicologic assessment; n=4/group for toxicokinetic assessment) were dosed once daily by oral gavage (10 mL/kg) with vehicle (0.5% HPMC/0.25% Tween-80 in 50 mM citrate, pH 2.6-2.8) or test articles (Compound A or Compound 1) at 100, 300 or 1000 mg/kg/day for 7 consecutive days. Blood samples for toxicokinetics were collected on Days 1 and 7. […] Body weight was recorded at randomization, prior to dosing on Days 1-7 and prior to necropsy. Samples for hematology and serum chemistry analyses were collected on Day 8, approximately 24 h after the last dose. Rats were euthanized on Day 8 for necropsy. Anatomic pathology evaluation consisted of gross observation, organ weight and histopathologic examination of select tissues.

H929-1051 = assay: Coculture of compound-treated anti-CD3-activated PBMCs with untreated myeloma cells; assay type: cell-based; conditions: Homo sapiens, untreated H929-1051, T:E 1:5, 24 h, read-out: IC50 tumor cell lysis by compound-treated PBMCs
Method: Coculture Assays with Compound-treated Human Peripheral Blood Mononuclear Cells and Untreated Myeloma Cell Lines. Methods: Cell Culture. All myeloma cell lines were kept in log phase, and cell density and viability were monitored by trypan blue exclusion using the Vi-CELL XR cell viability analyzer.
PBMC Treatment Assay Procedure. Ninety-six-well dishes were pre-coated with anti-CD3 antibody (OKT3, 3 μg/mL) and incubated at 4° C. overnight before the start of the experiment. Frozen PBMC donors, were thawed at 37° C. for 2 minutes in RPMI medium with 10% FBS and cell counts and viability were measured on the Vi-CELL® (Beckman Coulter). Peripheral blood mononuclear cells were washed and diluted to 1×10^6 cells/mL and dispensed to the compound-treated plates in a total volume of 200 μL. Cells were incubated with compounds for 2 h before being transferred onto anti-CD3-coated plates and incubated for an additional 72 h at 37° C. After 72 h, the PBMCs were centrifuged, and cells were washed twice in RPMI medium+10% FBS. […] Peripheral blood mononuclear cells were counted and added to the MM cells at a target:effector (T:E) ratio of 1:5. After 24 h co-culture, specific target cell lysis by PBMCs was measured using Annexin V-AF647 and 7-AAD according to manufacturer's instructions and samples were run on the Attune NxT Cytometer (Thermo Fisher).

MM cell lines = assay: Daratumumab-mediated ADCC assay; assay type: cell-based, human
Method: ADCC Assay: The effect of Compound 2 or pomalidomide on daratumumab-mediated ADCC was evaluated in vitro by flow cytometry in a panel of MM cell lines. The NK cells were cultured overnight in NK culture medium containing 10 U/mL of recombinant human IL-2 before the start of the assay. The NK cells were washed and resuspended back in NK cell culture medium at 3.75×10^6 cells/mL. The MM cells were pretreated with sub-lethal concentrations of Compound 2 or pomalidomide for 72 h before using in the ADCC assay. The MM cells were washed and labelled with Tag-it Violet™ Proliferation and Cell Tracking Dye according to the manufacturer's instructions, followed by resuspension in NK culture medium at a concentration of 0.75×10^6 cells/mL. The ADCC assay was performed in triplicate with an effector to tumor ratio of 10:1 in a 96 well plate. MM cells (10 μL) were mixed with 10 μL of 2× concentration of daratumumab in the wells before the addition of 20 μL of NK cells. The co-cultures were incubated at 37° C. for 3 h followed by the addition of 50 μL of 7-AAD solution at room temperature for 15 minutes. The analysis was performed on a BD Celesta flow cytometer.

[1] = system: unstimulated primary human PBMCs; assay: Anti-proliferative counter-screen (CellTiter-Glo, 72 h); assay type: cell-based; conditions: PBMC
[2] = system: multiple myeloma and plasma cell leukemia cell lines (OPM2.P10, RPMI.8226, L363, JJN-3); assay: Combination with proteasome inhibitor pulse (flow cytometry, 72 h); assay type: cell-based, human; conditions: then Compound 2 72 h
Method: Twenty four hours prior to treatment with a proteasome inhibitor and test compound, an appropriate number of cells were split to a concentration of 0.2×10^6/mL in fresh media to allow for exponential growth. On the day of treatment, compounds were freshly solvated in DMSO. Proteasome inhibitors bortezomib or carfilzomib were diluted and added to pre-warmed culture media at the final working concentrations of 150 nM or 300 nM for bortezomib and 300 nM or 550 nM for carfilzomib. Proteasome inhibitor concentrations were determined based upon clinical Cmax concentrations as well as previous studies in each cell line which determined the duration and concentration of PI required to inhibit a specific amount of β5 proteasome activity. Cells were counted and an appropriate number were placed into media containing proteasome inhibitor and thoroughly mixed. After incubation for 1 h at 37° C., 5% CO2, cells were washed two times with 40 mL of complete media to remove the proteasome inhibitor. […] Plated cells were cultured at 37° C., 5% C02, for the remainder of the experiment, up to 72 h. Every 24 h, proteasome inhibition was monitored by the Cell-Based Proteasome-Glo Assay. Proliferation and apoptosis were measured at 72 h by flow cytometry. Cells were stained with APC Annexin-V and 7-AAD to enumerate the number of viable cells remaining in culture.
An in vitro cell assay was established in order to mimic the clinical pharmacokinetics (PK) and pharmacodynamics (PD) of exposure to proteasome inhibitors bortezomib and carfilzomib.

[3] = system: lenalidomide-resistant multiple myeloma cells (H929-1051); assay: Apoptosis induction with dexamethasone combinations (Caspase-Glo 3/7, 72 h); assay type: cell-based, human
Method: Methods: Dexamethasone was assessed for its ability to induce apoptosis as a single agent or in combination with Compound 2, pomalidomide, or lenalidomide. Induction of apoptosis was measured using Caspase-Glo in lenalidomide-resistant multiple myeloma cells (H929-1051). Dexamethasone was dispensed at 20 concentrations, using an acoustic dispenser. The test articles were added as single concentrations onto the dexamethasone wells with a Hewlett-Packard D300 Digital Dispenser. The final concentrations of compounds for the assay were: dexamethasone (0.8 μM to 0.00002 μM), lenalidomide (1 μM), pomalidomide (0.1 μM), and Compound 2 (0.001, 0.01, or 0.1 μM). Cells were dispensed into the assay plates with a Multidrop dispenser and duplicate plates were made for the assay. The apoptosis read was taken at 72 h post-compound treatment using a Caspase-Glo 3/7 and CellTiter-Glo Assays. The Caspase-Glo 3/7 luminescence was normalized to the CellTiter-Glo luminescence to account for differences in cell number. The fold change of the treated sample was calculated as follows: normalized caspase of treated sample/average of normalized DMSO control.

[4] = system: lenalidomide-resistant NCI-H929 (H929-1051) multiple myeloma/plasmacytoma tumors; assay: H929-1051 xenograft, Compound 2 alone and with dexamethasone; assay type: in vivo, mouse
H929-1051 xenograft = assay: Lenalidomide-resistant H929-1051 xenograft, continuous QD dosing; assay type: in vivo, mouse
Description: FIG. 4. Antitumor activity of Compound 2 with continuous dosing in lenalidomide-resistant H929-1051 xenograft model. Female SCID mice were inoculated with 10×10^6 H929-1051 tumor cells into the right flank. Mice were randomized into treatment groups (n=10/group) at the time of treatment initiation. Test article treatment started on Day 14 when the tumors were approximately 120 mm^3.
Antitumor Activity of Compound 2 in Lenalidomide-resistant Multiple Myeloma Xenograft Model. The purpose of the study was to test the single agent antitumor activity of Compound 2 in an H929-1051 xenograft model with once daily dosing (QD) at 1, 3, 10, and 30 mg/kg.

| SMILES | AUC(0-t) (in vivo; 100 mg/kg/day) | AUC(0-t) (in vivo; 300 mg/kg/day) | AUC(0-t) (in vivo; 1000 mg/kg/day) | dose at which minimal decreases in body weight gain were observed (in vivo; 7 days) | IC50 (H929-1051) | daratumumab-mediated ADCC of pretreated MM cells (MM cell lines; 72 h pretreatment, sub-lethal concentrations, NK cells E:T 10:1) | daratumumab-mediated ADCC (MM cell lines; ARH-77 cell line) | IC50 [1] | effect in combination with bortezomib ([2]; 1 h bortezomib pulse, OPM2.P10, RPMI.8226, JJN-3) | effect in combination with carfilzomib ([2]; 1 h carfilzomib pulse, 4 cell lines) | combination effect with dexamethasone on cell viability and apoptosis ([3]; Compound 2 0.001, 0.01, 0.1 μM) | shift of the onset of dexamethasone activity in the presence of Compound 2 ([3]; caspase-3 induction) | combination antitumor activity (fractional product method) ([4]; Compound 2 0.1 mg/kg and dexamethasone 0.5 mg/kg) | tumor volume reduction (TVR) ([4]; Compound 2 0.1 mg/kg in combination with dexamethasone 0.5 mg/kg) | tumor growth inhibition / tumor volume reduction (TVR) ([4]; single agent Compound 2 0.1 mg/kg oral once daily) | tumor volume reduction (H929-1051 xenograft; 1 mg/kg QD) | tumor volume reduction (H929-1051 xenograft; 3 mg/kg QD) | tumor volume reduction (H929-1051 xenograft; 10 mg/kg QD) | tumor volume reduction (H929-1051 xenograft; 30 mg/kg QD) |
| --- | --- | --- | --- | --- | --- | --- | --- | --- | --- | --- | --- | --- | --- | --- | --- | --- | --- | --- | --- |
| N#Cc1ccc(N2CCN(Cc3ccc(COc4cccc5c4CN(C4CCC(=O)NC4=O)C5=O)cc3)CC2)c(F)c1 (racemic) [Compound 1, 4-(4-(4-(((2-(2,6-dioxopiperidin-3-yl)-1-oxoisoindolin-4-yl)oxy)methyl)benzyl)piperazin-1-yl)-3-fluorobenzonitrile] | 143 µM·h | 514 µM·h | 1220 µM·h | ≥ 300 mg/kg | – | – | – | – | – | – | – | – | – | – | – | – | – | – | – |
| N#Cc1ccc(N2CCN(Cc3ccc(COc4cccc5c4CN([C@H]4CCC(=O)NC4=O)C5=O)cc3)CC2)c(F)c1 [Compound 2, (S)-4-(4-(4-(((2-(2,6-dioxopiperidin-3-yl)-1-oxoisoindolin-4-yl)oxy)methyl)benzyl)piperazin-1-yl)-3-fluorobenzonitrile] | – | – | – | – | 0.2 nM | higher degree of tumor lysis with daratumumab compared to untreated cells | enhanced ADCC | > 10000 nM | demonstrated a combination effect | combination effects with Compound 2 were demonstrated in all 4 cell lines | synergized with dexamethasone | 1 log | synergistic | 84% | 34% | 75% | 86% | 84% | 85% |
